Laboratory results taken from paper PMC7956567, “Aqueous Solubility of Organic Compounds for Flow Battery Applications: Symmetry and Counter Ion Design to Avoid Low-Solubility Polymorphs” (Molecules, 2021).
In brackets after ≈: the same amount, converted by molar mass. Several values for one entry are separate records, joined by “and”; a condition that tells them apart may be missing. Identical values can stand only once. Counter-ions that a name gives are not always drawn. One block for each molecule: values may come before it.

What was measured:
[1] = Solubility by NMR method with imidazole as internal standard; format: physicochemical
Source text: (§1) Figure 3 illustrates the two methods used to determine solubility. The first method was gravimetry which required a higher amount of analyte to reduce any error arising from possible co-crystalized compounds. This method is easy to realize without the need for high-tech equipment, and its result is also a reference for the other method performed by NMR spectroscopy. The NMR method required only a small quantity of the analyte and was more accurate as no co-crystalized compounds were counted in its homogeneous solution phase.
The NMR spectra used to determine the solubility were recorded with a known amount of imidazole as the internal standard.
^1H NMR spectra were recorded in DMSO-d6 or CDCl3 solution at room temperature, on a Varian Unity Inova 500 spectrometer (Bruker Corp. Oxford, UK) (500 and 125 MHz for ^1H NMR and APT-NMR spectra, respectively), with the residual solvent signal as the lock and imidazole as the internal standard (only for solubility determination). Chemical shifts (δ) and coupling constants (J) are given in ppm and Hz, respectively.

[2] = parameters: method as in doi:10.1149/1945-7111/ab7550; conditions: water; disodium salts; cited from earlier work
[3] = Solubility by gravimetry; format: physicochemical; conditions: aqueous buffer, thermodynamic from solid, 1 M sulfuric acid, first isolated polymorph
Source text: as §1

[4] = 1 M acid, counter ion PO3 3− (phosphate), aqueous buffer, thermodynamic from solid, 1 M acid, counter ion PO3 3− [sic] (phosphate), read-out: Solubility in 1 M acid, PO3 3−
[5] = 1 M sulfuric acid, aqueous buffer, thermodynamic from solid, 1 M sulfuric acid, counter ion SO4 2−, final (more stable) polymorph, read-out: Solubility in 1 M acid, SO4 2−

Molecule: 2,3-dimethyl-5-[(morpholin-4-yl)methyl]benzene-1,4-diol [MMHQ]
- Solubility in 1 M acid, ClO4− ([1]; 1 M acid, counter ion ClO4−): 20 mM
- Solubility in 1 M acid, Cl− ([1]; 1 M acid, counter ion Cl−, NMR method, validated by gravimetric analysis): 0.07 ^1 M
- Solubility in 1 M acid, PO3 3− ([1]; 1 M acid, counter ion PO3 3− [sic] (phosphate)): 0.48 M
- Solubility in 1 M acid, SO4 2− ([1]; 1 M sulfuric acid, counter ion SO4 2−, final (more stable) polymorph): 480 mM

Molecule: O=C1c2cccc(S(=O)(=O)[O-])c2C(=O)c2cccc(S(=O)(=O)[O-])c21.[Na+].[Na+] [1,5-AQDSNa2, 9,10-dioxo-9,10-dihydroanthracene-1,5-disulfonic acid disodium salt]
- Aqueous solubility [2]: 70 mM

Molecule: O=C1c2ccc(S(=O)(=O)[O-])cc2C(=O)c2ccc(S(=O)(=O)[O-])cc21.[Na+].[Na+] [2,6-AQDSNa2, 9,10-dioxo-9,10-dihydroanthracene-2,6-disulfonic acid disodium salt, reference compound]
- solubility ([1]; water, disodium salt, NMR method with imidazole as internal standard, read-out: Aqueous solubility): 40 mM
- Aqueous solubility [2]: below 0.1 M

Molecule: O=C1c2ccc(S(=O)(=O)O)cc2C(=O)c2cc(S(=O)(=O)O)ccc21 [2,7-AQDS disodium salt, 9,10-dioxo-9,10-dihydroanthracene-2,7-disulfonic acid]
- Aqueous solubility [2]: 580 mM and 740 mM

- solubility ([1]; 1 M acid, counter ion ClO4−, aqueous buffer, thermodynamic from solid, 1 M acid, counter ion ClO4−, read-out: Solubility in 1 M acid, ClO4−): 10 mM (≈ 3.08 mg/mL)
- solubility ([1]; 1 M acid, counter ion Cl−, thermodynamic from solid, 1 M acid, counter ion Cl−, NMR method, validated by gravimetric analysis, read-out: Solubility in 1 M acid, Cl−): 30 mM (≈ 9.25 mg/mL)
- solubility [1, 4]: 530 mM (≈ 163 mg/mL)
- solubility [1, 5]: 80 mM (≈ 24.7 mg/mL)
- solubility ([1]; 1 M sulfuric acid, one year later, new polymorph, method not given, read-out: Solubility in 1 M sulfuric acid one year later): < 100 mM
- solubility [3]: 1700 mM (≈ 524 mg/mL)
Molecule: Oc1cc(CN2CCOCC2)c(O)cc1CN1CCOCC1 [DMHQ, 2,5-bis[(morpholin-4-yl)methyl]benzene-1,4-diol]

- solubility [1, 4]: 550 mM (≈ 185 mg/mL)
- solubility [1, 5]: 440 mM (≈ 148 mg/mL)
Molecule: Cc1c(O)c(C)c(CN2CCOCC2)c(O)c1CN1CCOCC1 [asym-DDHQ, 2,6-dimethyl-3,5-bis[(morpholin-4-yl)methyl]benzene-1,4-diol]

- solubility [1, 4]: 400 mM (≈ 135 mg/mL)
- solubility [1, 5]: 60 mM (≈ 20.2 mg/mL)
- solubility ([1]; 1 M sulfuric acid, aqueous buffer, thermodynamic from solid, 1 M sulfuric acid, freshly obtained product, first polymorph, NMR method, read-out: Solubility of first polymorph in 1 M sulfuric acid): 240 mM (≈ 80.7 mg/mL)
Molecule: Cc1c(O)c(CN2CCOCC2)c(C)c(O)c1CN1CCOCC1 [sym-DDHQ, 2,5-dimethyl-3,6-bis[(morpholin-4-yl)methyl]benzene-1,4-diol]
